Measured values taken from patent publication US20240059658A1 (Emory University, priority 2019, published 2024).

Each molecule was assayed on EU-1 (assay: WST cytotoxicity assay, cancer cell EU-1). Conditions: EU-1; no other cell line named in the cell; read-out: Cancer cell (EU-1) cytotoxicity IC50.
Type: cell-based, human
Method: This study used two ALL cell lines (EU-1 and EU-3) and three NB cell lines (NB-1643, SHEP1 and LA1-55N). All 5 cancer cell lines were established from pediatric ALL or NB patients and were well-characterized for their expression of MDM2 and p53-status, as reported previously. All cell lines were grown in standard culture medium (RPMI 1640 containing 10% FBS, 2 mmol/L L-glutamine, 50 U penicillin and 50 μg/mL streptomycin) at 37° C. in a humidified atmosphere containing 5% CO2.
The cytotoxic effect of MX 69 and MX69 analogs on cancer cells was determined using the water-soluble tetrazolium salt (WST) assay. Briefly, cells cultured in 96-well microtiter plates were treated with different concentrations of AQ-101 for a 20-h period. WST (25 μg/well) was then added and incubation continued for an additional 4 h, after which optical density (OD) was read with a microplate reader (test wavelength of 450 nm; reference wavelength of 620 nm).

SMILES	IC50 [µM]
COC(=O)c1ccc([C@@H]2Nc3ccc(S(=O)(=O)Nc4ccc(C)c(C)c4)cc3[C@H]3OCC[C@H]32)cc1 [Compound 69L13]	6.4 to 9

Same assay, conditions: Homo sapiens, EU-1, EU-1; no other cell line named in the cell; read-out: Cancer cell (EU-1) cytotoxicity IC50

SMILES	IC50 [µM]
CCC(=O)c1cccc(NS(=O)(=O)c2ccc3c(c2)C2OCC[C@H]2C(c2ccc4c(c2)CCO4)N3)c1 (stereo in doubt) [Compound 69L127, 4-(2,3-dihydrobenzofuran-5-yl)-N-(3-propionylphenyl)-2,3,3a,4,5,9b-hexahydrofuro[3,2-c]quinoline-8-sulfonamide]	4.8
COC(=O)c1ccc([C@@]2(N)C[C@H](c3ccc(Cl)cc3)c3cc(S(=O)(=O)Nc4ccc(C)c(C)c4)ccc3N2)cc1 [Compound 69L14]	> 50
Cc1ccc(NS(=O)(=O)c2ccc3c(c2)[C@H]2OCC[C@H]2C(c2ccc(C(=O)C4CC4)cc2)N3)cc1C (stereo partly shown) [Compound 69L67]	5.18
COC(=O)c1ccc([C@H]2Nc3ccc(S(=O)(=O)Nc4ccc(C)c(C)c4)cc3[C@H]3OCC[C@@H]23)cc1 [Compound 69L28]	8.4 to 11.9
CCC(=O)c1cccc(NS(=O)(=O)c2ccc3c(c2)C2OCC[C@H]2C(c2ccc(C(=O)C(C)C)cc2)N3)c1 (stereo partly shown) [Compound 69L125, 4-(4-isobutyrylphenyl)-N-(3-propionylphenyl)-2,3,3a,4,5,9b-hexahydrofuro[3,2-c]quinoline-8-sulfonimide]	1.48
Cc1ccc(NS(=O)(=O)c2ccc3c(c2)C2CCC[C@H]2[C@H](c2ccc(C(O)C(C)C)cc2)N3)cc1C (stereo partly shown) [Compound 69L86]	3.77
CC(=O)c1ccc([C@@H]2CC(O)c3cc(S(=O)(=O)Nc4ccc(C)c(C)c4)ccc3N2)cc1 (stereo partly shown) [Compound 69L47]	2.1
COC(=O)c1ccc(C2Nc3c(Cl)cc(S(=O)(=O)Nc4ccc(C)c(C)c4)cc3C3OCC[C@@H]23)cc1 (stereo partly shown) [Compound 69L33]	> 50
CC(C)C(=O)c1ccc(C2Nc3ccc(S(=O)(=O)Nc4ccc5c(c4)OCO5)cc3[C@H]3OCC[C@@H]23)cc1 (stereo partly shown) [Compound 69L142]	> 5
CC(=O)c1ccc([C@@H]2Nc3ccc(S(=O)(=O)Nc4ccc(C)c(C)c4)cc3C3NCC[C@H]32)cc1 (stereo partly shown) [Compound 69L50]	4.1
Cc1ccc(NS(=O)(=O)c2ccc3c(c2)C2[C@@H](CCN2C(=O)OC(C)(C)C)C(c2ccc(S(C)(=O)=O)cc2)N3)cc1C (stereo partly shown) [Compound 69L42]	19.9
Cc1ccc(NS(=O)(=O)c2ccc3c(c2)C2OCC[C@@H]2[C@@H](c2ccc(C(=O)C(C)C)cc2)N3)cc1C (stereo partly shown) [Compound 69L52c]	2.4 to 2.5
Cc1ccc(NS(=O)(=O)c2ccc3c(c2)[C@H]2c4ccccc4C[C@H]2[C@H](c2ccc(Br)cc2)N3)cc1C [Compound 69L7]	> 50
COC(=O)c1ccc([C@@H]2Nc3ccc(S(=O)(=O)Nc4ccc(C)c(C)c4)cc3[C@@H]3OCC[C@H]23)cc1 [Compound 69L29]	2 to 2.7
CC(C)C(=O)c1cccc(C2CC(=O)c3cc(S(=O)(=O)Nc4ccc5c(c4)CCO5)ccc3N2)c1 (stereo not shown) [Compound 69L140]	0.23
CC(C)C(=O)c1cccc(C2CC(=O)c3cc(S(=O)(=O)Nc4cccc(C#N)c4)ccc3N2)c1 (stereo not shown) [Compound 69L155]	1.45
Cc1cc(NS(=O)(=O)c2ccc3c(c2)C2OCC[C@H]2C(c2ccc(C(=O)C(C)C)cc2)N3)ccc1C(F)(F)F (stereo partly shown) [Compound 69L89]	7.2
CC(=O)c1ccc([C@H]2Nc3ccc(S(=O)(=O)Nc4ccc(C)c(C)c4)cc3C3NCC[C@H]32)cc1 (stereo partly shown) [Compound 69L49]	4.6
COc1cccc(NS(=O)(=O)c2ccc3c(c2)C(=O)CC(c2cccc(C(=O)N(C)C)c2)N3)c1 (stereo not shown) [Compound 69L159, 3-(6-(N-(3-methoxyphenyl)sulfamoyl)-4-oxo-1,2,3,4-tetrahydroquinolin-2-yl)-N,N-dimethylbenzamide]	0.65
Cc1ccc(N(C)S(=O)(=O)c2ccc3c(c2)[C@H]2OCC[C@H]2[C@H](c2ccc(C(=O)C(C)C)cc2)N3)cc1C (stereo in doubt) [Compound 69L133, N-(3,4-dimethylphenyl)-4-(4-isobutyrylphenyl)-N-methyl-2,3,3a,4,5,9b-hexahydrofuro[3,2-c]quinoline-8-sulfonamide]	1.58
Cc1ccc(NS(=O)(=O)c2ccc3c(c2)[C@H]2c4ccccc4C[C@H]2[C@H](c2ccc(C(=O)O)cc2)N3)cc1C [Compound 69L6]	20.5
CCO[C@H]1C[C@H](c2ccc(C(=O)OC)cc2)Nc2ccc(S(=O)(=O)Nc3ccc(C)c(C)c3)cc21 [Compound 69L32]	7.28
Cc1ccc(NS(=O)(=O)c2ccc3c(c2)[C@H]2OCC[C@H]2C(c2ccc(S(C)(=O)=O)cc2)N3)cc1C (stereo partly shown) [Compound 69L19]	4.06
Cc1ccc(NS(=O)(=O)c2ccc3c(c2)C2CCC[C@H]2[C@H](c2ccc(C(=O)C(C)C)cc2)N3)cc1C (stereo partly shown) [Compound 69L88]	6.97
COC(=O)c1ccc([C@@H]2Nc3ccc(S(=O)(=O)Nc4ccc(C)c(C)c4)cc3[C@H]3c4ccccc4C[C@H]32)cc1 [Compound 69L3]	18.3
Cc1ccc(NS(=O)(=O)c2ccc3c(c2)[C@H]2C=CC[C@H]2[C@H](c2ccc(S(C)(=O)=O)cc2)N3)cc1C [Compound 69L21]	6.18
O=S(=O)(Nc1ccc(C(F)(F)F)c(C(F)(F)F)c1)c1ccc2c(c1)C1OCC[C@H]1C(C1CCCCC1)N2 (stereo partly shown) [Compound 69L91]	> 10

SMILES	IC50 [µM]
CC(C)C(=O)c1ccc(C2Nc3ccc(S(=O)(=O)Nc4ccc(Br)c(Br)c4)cc3[C@H]3OCC[C@@H]23)cc1 (stereo partly shown) [Compound 69L74]	5.23
CC(C)C(=O)c1ccc(C2Nc3ccc(S(=O)(=O)Nc4cccc(C(C)C)c4)cc3[C@H]3OCC[C@@H]23)cc1 (stereo partly shown) [Compound 69L134]	6.53
CC(=O)c1cccc(NS(=O)(=O)c2ccc3c(c2)[C@H]2OCC[C@H]2C(c2ccc(C(C)C)cc2)N3)c1 (stereo partly shown) [Compound 69L115]	0.56
CCc1cccc(NS(=O)(=O)c2ccc3c(c2)C(=O)C(F)C(c2cccc(C(=O)C(C)C)c2)N3)c1 (stereo not shown) [Compound 69L168]	0.34
COc1cc(NS(=O)(=O)c2ccc3c(c2)C(=O)CC(c2ccc(C(C)=O)cc2)N3)ccc1C (stereo not shown) [Compound 69L165]	8.9
COc1cc(NS(=O)(=O)c2ccc3c(c2)C(=O)CC(c2cccc(C(=O)N(C)C)c2)N3)ccc1C (stereo not shown) [Compound 69L161]	0.82
COC(=O)c1ccc([C@H]2Nc3ccc(S(=O)(=O)Nc4ccc(C)c(C)c4)cc3C3NCC[C@H]32)cc1 (stereo partly shown) [Compound 69L35]	4.86
Cc1ccc(NS(=O)(=O)c2ccc3c(c2)[C@H]2OCC[C@H]2[C@H](c2ccc(C(=O)O)cc2)N3)cc1C [Compound 69L5]	> 50
Cc1ccc(NS(=O)(=O)c2ccc3c(c2)C2NCC[C@H]2[C@H](c2ccc(S(C)(=O)=O)cc2)N3)cc1C (stereo partly shown) [Compound 69L44]	44.9
O=S(=O)(Nc1ccc2c(c1)CCO2)c1ccc2c(c1)[C@H]1OCC[C@H]1C(c1ccccc1)N2 (stereo partly shown) [Compound 69L118]	0.15
COC(=O)c1ccc([C@@H]2Nc3cc(Cl)c(S(=O)(=O)Nc4ccc(C)c(C)c4)cc3[C@H]3C=CC[C@H]32)cc1 [Compound 69L22]	19.3
CCc1cccc(NS(=O)(=O)c2ccc3c(c2)[C@H]2OCC[C@H]2C(c2ccc(C(=O)C(C)C)cc2)N3)c1 (stereo partly shown) [Compound 69L148]	2.05
Cc1ccc(NS(=O)(=O)c2ccc3c(c2)[C@H]2OCC[C@H]2C(c2ccc(C(=O)O)cc2)N3)cc1C (stereo partly shown) [Compound 69L4]	> 50
CC(=O)c1cccc(NS(=O)(=O)c2ccc3c(c2)[C@H]2OCC[C@H]2[C@H](C2CCCCC2)N3)c1 [Compound 69L144]	1.53
Cc1ccc(NS(=O)(=O)c2ccc3c(c2)C2OCC[C@@H]2[C@H](c2ccc(C(=O)C(C)C)cc2)N3)cc1C (stereo partly shown) [Compound 69L52d]	0.5
Cc1ccc(NS(=O)(=O)c2ccc3c(c2)[C@H]2OCC[C@H]2C(c2ccc(B4OCC(C)(C)CO4)cc2)N3)cc1C (stereo partly shown) [Compound 69L17]	8.69
CCc1cccc(NS(=O)(=O)c2ccc3nc(-c4cccc(C(=O)C(C)C)c4)c(OC)cc3c2)c1 [Compound 69L167]	3.6
CCc1cccc(NS(=O)(=O)c2ccc3c(c2)C(=O)CC(c2cccc(C(=O)N(C)C)c2)N3)c1 (stereo not shown) [Compound 69L166]	0.11
CC(C)C(=O)c1ccc(C2Nc3ccc(S(=O)(=O)Nc4cccc(N(C)C)c4)cc3[C@H]3OCC[C@@H]23)cc1 (stereo partly shown) [Compound 69L141]	7.5
COC(=O)c1ccc([C@H]2Nc3ccc(S(=O)(=O)Nc4ccc(C)c(C)c4)cc3C3OCCC32)cc1 (stereo partly shown) [Compound 69L12]	3 to 3.9
Cc1ccc(NS(=O)(=O)c2ccc3c(c2)[C@H]2OCC[C@H]2C(c2ccc(C(=O)C4CC4)cc2)N3)cc1Cl (stereo partly shown) [Compound 69L69]	5.81
Cc1ccc(NS(=O)(=O)c2ccc3c(c2)C2NCC[C@H]2[C@@H](c2ccc(S(C)(=O)=O)cc2)N3)cc1C (stereo partly shown) [Compound 69L43]	12
CC(=O)c1cccc(NS(=O)(=O)c2ccc3c(c2)C2NCC[C@H]2C(c2ccc(C(=O)C(C)C)cc2)N3)c1 (stereo partly shown) [Compound 69L130]	> 10
CC(C)C(=O)c1ccc(C2Nc3ccc(S(=O)(=O)Nc4cccc5c4COC5=O)cc3[C@H]3OCC[C@@H]23)cc1 (stereo partly shown) [Compound 69L146]	3.81
Cc1ccc(NS(=O)(=O)c2ccc3c(c2Cl)[C@H]2C=CC[C@H]2[C@H](c2ccc(S(C)(=O)=O)cc2)N3)cc1C [Compound 69L23]	23.4
CC(=O)c1cccc(NS(=O)(=O)c2ccc3c(c2)C2NCC[C@H]2[C@H](c2ccc(C(=O)C(C)C)cc2)N3)c1 (stereo partly drawn) [69L130 cis]	> 10
Cc1ccc(NS(=O)(=O)c2ccc3c(c2)[C@H]2OCCC[C@H]2C(c2ccc(C(=O)O)cc2)N3)cc1C (stereo partly shown) [Compound 69L10]	> 50
